Experiment [1] concerns rats with experimental pancreatitis (DBTC), referred abdominal hypersensitivity. Nature of the experiment: experimental pancreatitis model (IV DBTC): referred abdominal hypersensitivity, withdrawals to von Frey filament. Type of experiment: in vivo, Sprague Dawley rats. Particulars: DBTC rats. The method, then: (§1) Adult male Sprague Dawley rats (Harlan, Indianapolis, Ind.), weighing 150-200 g, were maintained in a climate-controlled room with ad lib food and water on a 12 hour/12 hour light/dark cycle (lights on at 07:00 hours). All procedures followed the policies of the International Association for the Study of Pain and the NIH guidelines for the handling and use of laboratory animals. Studies were approved by the University of Arizona IACUC.
(§2) Dibutyltin dichloride (DBTC) was obtained from Sigma-Aldrich (Milwaukee, Wis.) and dissolved in 100% ethanol to a concentration of 8 mg/kg (Sparmann et al., Gastroenterology. 112:1664-1672 (1997))). Sumatriptan succinate was obtained from Toronto Research Chemicals (ON, Canada) and dissolved in saline to 1, 3, and 10 μg for RVM microinjections and 100, 200, and 300 μg/kg for systemic injections (Kayser et al., Br J Pharmacol. 137:1287-1297 (2002)). The 5HT1B antagonist isamoltane and the 5HT1D antagonist BRL15722 were obtained from Tocris (Elllisville, Mo.). Isamoltane was dissolved in saline to a concentration of 3 μg for RVM microinjection and to a concentration of 4 mg/kg (Ottani et al., Eur J Pharmacol. 497:181-186 (2004)) for system application. BRL15722 was dissolved in 10% DMSO to a concentration of 3 μg for RVM microinjection and to a concentration of 0.3 mg/kg (Ottani et al., Eur J Pharmacol. 497:181-186 (2004)) for systemic application.
For the experiments involving microinjection of drugs into the RVM, rats underwent surgeries to implant RVM cannulae. After five days of recovery, rats received either intravenous injection of DBTC to induce pancreatitis, or intracolonic injection of sodium butyrate to induce colonic hypersensitivity. Animals were monitored for development of visceral hypersensitivity on the subsequent days. On day six after either induction of pancreatitis or colonic hypersensitivity, animals underwent baseline behavioral measurements. […] For experiments investigating the effects of serotonin antagonists, the drugs were microinjected concurrently with injection of sumatriptan and animals were monitored for the subsequent two h. Separate groups of animals were microinjected with the antagonists alone to control for possible effects of the drugs by themselves.
For the experiments involving systemic drug administration, rats received intravenous injection of DBTC to induce pancreatitis or intracolonic injection of sodium butyrate to induce colonic hypersensitivity. On day six after either induction of pancreatitis of colonic hypersensitivity, animals underwent baseline behavioral measurements. […] Separate groups of animals were injected with the antagonists alone. Additionally, separate groups of animals were injected with sumatriptan systemically and microinjected with the antagonists in the RVM to determine if the RVM is a site of action for systemically applied sumatriptan. The microinjection of antagonists into the RVM was done immediately following the systemic injection of sumatriptan. All animals were tested for behavioral signs of hypersensitivity every 20 min for two h after the end of the injections.
Pancreatitis was produced by a tail vein injection of dibutyltin dichloride (DBTC, Aldrich, Milwaukee, Wis., 0.25 cc) dissolved in 100% ethanol at a dose of 8 mg/kg under isofluorane anesthesia (2-3 liters/min, 4.0%/vol until anesthetized, then 2.5%/vol throughout the procedure; Vera-Portocarrero et al., Gastroenterology. 130:2155-2164 (2006)). Control animals were injected with the vehicle solution only (100% ethanol, 0.25 mL).
Referred abdominal hypersensitivity in the pancreatitis model was quantified by measuring the number of withdrawal events evoked by application of a calibrated von Frey filament (determined by either abdominal withdrawal, licking of the abdominal area, or whole body withdrawal). Rats were placed inside Plexiglas boxes on an elevated fine fiberglass screen mesh and acclimated for 30 minutes before testing. […]

The test system of experiment [2] is rats with experimental colonic hypersensitivity (butyrate), referred lumbar hypersensitivity. The experiment in a line: colonic hypersensitivity model (intracolonic sodium butyrate): referred lumbar hypersensitivity, von Frey mechanical threshold. Type of experiment: in vivo, Sprague Dawley rats. Particulars: butyrate rats. The method, then: as §1, §2
For the experiments involving microinjection of drugs into the RVM, rats underwent surgeries to implant RVM cannulae. After five days of recovery, rats received either intravenous injection of DBTC to induce pancreatitis, or intracolonic injection of sodium butyrate to induce colonic hypersensitivity. Animals were monitored for development of visceral hypersensitivity on the subsequent days. On day six after either induction of pancreatitis or colonic hypersensitivity, animals underwent baseline behavioral measurements. Sumatriptan was microinjected into the RVM at different doses (separate groups of rats for each dose) and animals were monitored behaviorally for two h after sumatriptan application in the RVM. For experiments investigating the effects of serotonin antagonists, the drugs were microinjected concurrently with injection of sumatriptan and animals were monitored for the subsequent two h. Separate groups of animals were microinjected with the antagonists alone to control for possible effects of the drugs by themselves.
For the experiments involving systemic drug administration, rats received intravenous injection of DBTC to induce pancreatitis or intracolonic injection of sodium butyrate to induce colonic hypersensitivity. On day six after either induction of pancreatitis of colonic hypersensitivity, animals underwent baseline behavioral measurements. Sumatriptan was injected intraperitoneally at different doses (separate groups of rats for each dose) and the animals were monitored behaviorally every 20 min for two h after injection. For experiments investigating the effects of serotonin antagonists, the drugs were injected intraperitoneally immediately following the injection of sumatriptan (separate groups for each respective antagonist). Separate groups of animals were injected with the antagonists alone. Additionally, separate groups of animals were injected with sumatriptan systemically and microinjected with the antagonists in the RVM to determine if the RVM is a site of action for systemically applied sumatriptan. The microinjection of antagonists into the RVM was done immediately following the systemic injection of sumatriptan. All animals were tested for behavioral signs of hypersensitivity every 20 min for two h after the end of the injections.
Colonic hypersensitivity was induced by enemas of a sodium butyrate solution ([…]) twice daily for 3 days (Bourdu et al., Gastroenterology. 128:1996-2008 (2005)). […]

Another experiment concerns the target β-2 adrenergic receptors (Homo sapiens, UniProt P07550). Particulars: reported; cited from earlier work.
Setting [3] is: sumatriptan 10 μg RVM, antagonist 3 μg RVM.
The mark [4] stands for this setting: sumatriptan 300 μg/kg IP, antagonist 3 μg RVM.
The mark [5] stands for this setting: sumatriptan 300 μg/kg IP, isamoltane 4 mg/kg IP or BRL15722 0.3 mg/kg IP.

Entries after “also recorded” stand apart in the source; their conditions may differ.

Chain of β-2 adrenergic receptors (P07550 whole entry): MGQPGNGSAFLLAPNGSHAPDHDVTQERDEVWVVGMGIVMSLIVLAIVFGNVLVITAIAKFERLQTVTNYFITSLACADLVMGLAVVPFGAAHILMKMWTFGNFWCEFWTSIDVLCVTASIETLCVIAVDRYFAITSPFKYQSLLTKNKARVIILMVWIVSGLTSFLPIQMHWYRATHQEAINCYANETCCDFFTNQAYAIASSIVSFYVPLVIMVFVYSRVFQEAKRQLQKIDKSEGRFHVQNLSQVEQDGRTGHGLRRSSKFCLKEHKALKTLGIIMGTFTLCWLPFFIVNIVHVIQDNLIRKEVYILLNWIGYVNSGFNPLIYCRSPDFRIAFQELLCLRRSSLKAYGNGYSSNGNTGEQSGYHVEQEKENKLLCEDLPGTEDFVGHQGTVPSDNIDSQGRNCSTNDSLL

Take `CC(C)NCC(O)COc1ccccc1-n1cccc1` (stereo not shown) [isamoltane]: the “effect of concurrent RVM antagonist on the effect of RVM sumatriptan” value in experiment [1] (setting [3]) is on record as “blocked the effect of sumatriptan”; in experiment [2] (setting [3]), “blocked the effects of sumatriptan; also recorded: blocked the effect of RVM sumatriptan”. Also, the “effect of RVM antagonist on the effect of systemic sumatriptan” value in experiment [1] (setting [4]) and in experiment [2] (setting [4]) was “failed to antagonize the effects of systemic sumatriptan; also recorded: did not modify the effect of systemic sumatriptan” each time. Moreover, the “effect of concurrent systemic (IP) antagonist on the effect of systemic sumatriptan” value in experiment [1] (setting [5]) is listed as “reduced the effects of sumatriptan; also recorded: blocked the effects of sumatriptan”; in experiment [2] (setting [5]) it was “reduced the effects of sumatriptan; also recorded: blocked the effect of systemic sumatriptan”. Also, on β-2 adrenergic receptors, the “activity at β-2 adrenergic receptors” value is recorded as “reported to have activity at β-2 adrenergic receptors”.

These data come from patent US20090163451A1, “METHODS FOR TREATING VISCERAL PAIN” (priority 2007, published 2009).
